Assay results as given in article PMC11108860 (Heliyon, 2024).
Like-named read-outs stand apart in the source and are kept apart here.

How the values were obtained:
OR2AT4 = molecular target: T1, OR2AT4 (Homo sapiens, UniProt A6NND4); assay: Calcium imaging; format: cell-based; conditions: 0 to 1 mM; OR2AT4-expressing cells
T1 sequence (A6NND4 1-320): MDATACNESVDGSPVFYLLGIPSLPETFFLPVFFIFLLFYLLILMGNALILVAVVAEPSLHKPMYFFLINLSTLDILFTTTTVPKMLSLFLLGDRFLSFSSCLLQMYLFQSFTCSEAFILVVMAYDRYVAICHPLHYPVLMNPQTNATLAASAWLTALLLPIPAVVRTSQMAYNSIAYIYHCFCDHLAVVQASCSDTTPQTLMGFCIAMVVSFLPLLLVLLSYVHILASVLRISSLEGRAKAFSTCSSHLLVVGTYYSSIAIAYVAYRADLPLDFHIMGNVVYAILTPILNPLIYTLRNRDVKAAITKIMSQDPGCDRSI

K562 cells [1] = assay: Apoptosis assay; format: cell-based, human; conditions: for percentage of total apoptotic cells: 200 μM
K562 cells [2] = assay: Cell viability assay; format: cell-based, human; conditions: for IC50: Homo sapiens, read-out: IC50 (cell viability); for cell viability: K562
Molt-4 cells [3] = assay: Cell viability assay; format: cell-based; conditions: 24, 48, and 72 h
K562 cells [4] = assay: Calcium imaging; format: cell-based, human
Molt-4 cells [5] = assay: Calcium imaging; format: cell-based
K562 cells [6] = assay: Western blotting of proliferation- and apoptosis-related proteins in K562 cells; format: cell-based, human; conditions: for cleaved caspase-3 after inhibitor treatment: Fig. 6B,D, similar to EGCG treatment
OR2AT4-6xHis protein = molecular target: T2, OR2AT4-6xHis protein (Homo sapiens, UniProt A6NND4); assay: SPR sensorgrams on immobilized OR2AT4-6xHis, concentration series; format: binding; conditions: 100 μM (Fig. 2A)
T2 sequence (A6NND4 1-320): T1 sequence (A6NND4 1-320)

[7] = K562, EGCG 200 μM, 30 min after treatment
[8] = OR2AT4 siRNA-transfected K562 cells, EGCG treatment

COc1cc2c3cc1Oc1c(OC)c(OC)cc4c1[C@@H](Cc1ccc(O)c(c1)Oc1ccc(cc1)C[C@@H]3N(C)CC2)N(C)CC4 [Berbamine]
intracellular calcium response, dose-response (OR2AT4): increased intracellular calcium levels in a concentration-dependent manner

O=C(O[C@@H]1Cc2c(O)cc(O)cc2O[C@@H]1c1cc(O)c(O)c(O)c1)c1cc(O)c(O)c(O)c1 [EGCG, (−)-epigallocatechin gallate]
percentage of late apoptotic cells, time course (K562 cells [1]; 200 μM, 24, 48, and 72 h): increased the percentage of late apoptotic cells in a time-dependent manner | percentage of total apoptotic cells (K562 cells [1]; 24 h): 50% | percentage of total apoptotic cells (K562 cells [1]; 48 h): 58.03% | percentage of total apoptotic cells (K562 cells [1]; 72 h): 64.52% | IC50 (K562 cells [2]; K562, 48 h): 146 µM | IC50 (K562 cells [2]; K562, 72 h): 158 µM | cell viability (K562 cells [2]; 24, 48, and 72 h, 0-500 μM): decreased cell viability in a time- (24, 48, and 72 h) and concentration-dependent manner | intracellular calcium response, dose-response (OR2AT4): increased intracellular calcium levels in a concentration-dependent manner | concentrations with sudden onset of cell death (Molt-4 cells [3]): above 100 μM | intracellular calcium response in K562 cells (K562 cells [4]; 0.2 mM): elevated the calcium response | intracellular calcium response in Molt-4 cells (Molt-4 cells [5]; 200 μM): no immediate calcium response | expression of Bax (K562 cells [6]; K562): no significant difference | expression of Bcl-2 (K562 cells [6]; K562): no significant difference | levels of cleaved caspase-3, time course (K562 cells [6]; K562, 200 μM, 24 and 48 h): increased in a time-dependent manner | protein level of phosphor-AKT (K562 cells [6]; [7]): downregulated | protein level of phosphor-p38 MARK (K562 cells [6]; [7]): downregulated | expression of phosphor-STAT5 (K562 cells [6]; K562, EGCG 200 μM, starting from 15 min): began to decrease | expression levels of cleaved caspase-8 (K562 cells [6]; K562, time- and concentration-dependent): upregulated | caspase-8 in OR2AT4 siRNA-transfected K562 cells (K562 cells [6]; [8]): significantly reduced | cleaved caspase-3 in OR2AT4 siRNA-transfected K562 cells (K562 cells [6]; [8]): significantly reduced

CCCCCCCCCCCCCCCCCCOP(=O)([O-])OC1CC[N+](C)(C)CC1 [Perifosine, reference compound]
p-Akt (K562 cells [6]; K562, Fig. 6A): downregulation | cleaved caspase-3 after inhibitor treatment (K562 cells [6]; K562): upregulation

C[S+]([O-])c1ccc(-c2nc(-c3ccncc3)c(-c3ccc(F)cc3)[nH]2)cc1 (stereo not drawn) [SB203580, reference compound]
cleaved caspase-3 after inhibitor treatment (K562 cells [6]; K562): upregulation | p-p38 MAPK (K562 cells [6]; K562, Fig. 6C): downregulation

CC1=CCC(CCC(C)C(C)O)C1(C)C (stereo not drawn) [Sandalore, reference compound]
cell viability (K562 cells [2]; Fig. S2): decreased cell viability in a concentration-dependent manner | intracellular calcium response, dose-response (OR2AT4): increased calcium response in a concentration-dependent manner | reactivity with OR2AT4 recombinant protein (SPR) (OR2AT4-6xHis protein): confirming the reactivity | intracellular calcium response in K562 cells (K562 cells [4]; 2 mM): increased intracellular Ca^2+ levels | intracellular calcium response in Molt-4 cells (Molt-4 cells [5]; 2 mM): no immediate calcium response
